# Results as given in patent publication US20250230193A1, “CYCLIC COMPOUND HAVING SELECTIVE KRAS INHIBITORY EFFECT ON HRAS AND NRAS” (CHUGAI SEIYAKU KABUSHIKI KAISHA, priority 2022, published 2025).
# *1 amine or outer side, *2 acyl side, *3 side chain or, on linkers, in order; H or OH if unused. Where a SMILES comes first, the peptide text is derived from it. Bridges are numbered along the chain shown (N, C = ends). [ ]: non-standard residue; d: D form. The star is where a group is joined. hPhe(3,5-F2-4-CF3) = N[C@@H](CCc1cc(F)c(C(F)(F)F)c(F)c1)C(=O)O; NPrPhe(4-CF3) = CCCN[C@@H](Cc1ccc(C(F)(F)F)cc1)C(=O)O; NMeGly(cPent) = CN[C@H](C(=O)O)C1CCCC1; X9 = C[C@@](N[*:1])(C(=O)[*:2])C1CC1; X13 = CCC[C@](C)(N[*:1])C(=O)[*:2]; αMeCha = C[C@](N)(CC1CCCCC1)C(=O)O; NMeD = CN[C@@H](CC(=O)O)C(=O)O; NMeL = CN[C@@H](CC(C)C)C(=O)O; αMeL = CC(C)C[C@](C)(N)C(=O)O; αMeV = CC(C)[C@](C)(N)C(=O)O; αMeS = C[C@](N)(CO)C(=O)O; Morpholide = C1CN(*)CCO1; Aze = O=C(O)[C@@H]1CCN1; Sar = CNCC(=O)O; tBu = CC(C)(C)*; Allyl = C=CC*
# Legend:
# [1] = molecular target: GDP-bound NRAS wild-type protein (Homo sapiens, UniProt P01111); assay: Binding to NRAS by surface plasmon resonance (SPR), Single Cycle Kinetics; settings: KD ratio NRAS/KRAS, SPR
# [2] = molecular target: GDP-bound HRAS wild-type protein (Homo sapiens, UniProt P01112); assay: Binding to HRAS by surface plasmon resonance (SPR), Single Cycle Kinetics; settings: KD ratio HRAS/KRAS, SPR
# Sequence of GDP-bound HRAS wild-type protein (P01112 whole entry): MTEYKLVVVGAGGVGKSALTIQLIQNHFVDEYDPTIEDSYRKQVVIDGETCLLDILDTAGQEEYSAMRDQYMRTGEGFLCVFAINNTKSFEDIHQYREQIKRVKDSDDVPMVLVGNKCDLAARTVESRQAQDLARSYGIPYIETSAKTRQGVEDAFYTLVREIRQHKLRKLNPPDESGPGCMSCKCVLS
# Sequence of GDP-bound NRAS wild-type protein (P01111 whole entry): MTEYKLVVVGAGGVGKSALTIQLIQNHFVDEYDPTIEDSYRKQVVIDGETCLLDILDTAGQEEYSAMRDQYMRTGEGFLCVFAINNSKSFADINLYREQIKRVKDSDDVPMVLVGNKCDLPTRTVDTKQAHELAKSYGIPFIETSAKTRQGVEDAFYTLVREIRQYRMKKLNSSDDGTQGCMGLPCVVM
SMILES,NRAS/KRAS (ratio of KD value with respect to GDP-bound NRAS wild-type protein to KD value with respect to KRAS) [1],HRAS/KRAS (ratio of KD value with respect to GDP-bound HRAS wild-type protein to KD value with respect to KRAS) [2]
"CCCN1C(=O)[C@@H]2CCN2C(=O)CN(C)C(=O)[C@H]([C@@H](C)CC)NC(=O)[C@H](CC(C)C)N(C)C(=O)C[C@@H](C(=O)N2CCOCC2)N(C)C(=O)[C@H](C2CCCC2)N(C)C(=O)[C@](C)(C2CC2)NC(=O)[C@@H]2CCCN2C(=O)[C@H](CCc2cc(F)c(C(F)(F)F)c(F)c2)NC(=O)CN(C)C(=O)[C@@H]1Cc1ccc(C(F)(F)F)cc1 [PP0791] ([NMeL]I[Sar][Aze][NPrPhe(4-CF3)][Sar][hPhe(3,5-F2-4-CF3)]P[X9][NMeGly(cPent)][NMeD]-Morpholide; lactam N-11)",C (A compound having a KD ratio of 0.1 or more and less than 3 is denoted as C),B (a compound having 3 or more and less than 10 is denoted as B)
"CCCN1C(=O)[C@@H]2CCN2C(=O)CN(C)C(=O)[C@H]([C@@H](C)CC)NC(=O)[C@H](CC(C)C)N(C)C(=O)C[C@@H](C(=O)N2CCOCC2)N(C)C(=O)[C@H](C2CCCC2)N(C)C(=O)[C@](C)(C(C)C)NC(=O)[C@@H]2CCCN2C(=O)[C@H](CCc2cc(F)c(C(F)(F)F)c(F)c2)NC(=O)CN(C)C(=O)[C@@H]1Cc1ccc(C(F)(F)F)cc1 [PP0792] ([NMeL]I[Sar][Aze][NPrPhe(4-CF3)][Sar][hPhe(3,5-F2-4-CF3)]P[αMeV][NMeGly(cPent)][NMeD]-Morpholide; lactam N-11)",C (A compound having a KD ratio of 0.1 or more and less than 3 is denoted as C),B (a compound having 3 or more and less than 10 is denoted as B)
"CCCN1C(=O)[C@@H]2CCN2C(=O)CN(C)C(=O)[C@H]([C@@H](C)CC)NC(=O)[C@H](CC(C)C)N(C)C(=O)C[C@@H](C(=O)N2CCOCC2)N(C)C(=O)[C@H](C2CCCC2)N(C)C(=O)[C@](C)(CCC)NC(=O)[C@@H]2CCCN2C(=O)[C@H](CCc2cc(F)c(C(F)(F)F)c(F)c2)NC(=O)CN(C)C(=O)[C@@H]1Cc1ccc(C(F)(F)F)cc1 [PP0794] ([NMeL]I[Sar][Aze][NPrPhe(4-CF3)][Sar][hPhe(3,5-F2-4-CF3)]P[X13][NMeGly(cPent)][NMeD]-Morpholide; lactam N-11)",C (A compound having a KD ratio of 0.1 or more and less than 3 is denoted as C),B (a compound having 3 or more and less than 10 is denoted as B)
"CCCN1C(=O)[C@@H]2CCN2C(=O)CN(C)C(=O)[C@H]([C@@H](C)CC)NC(=O)[C@H](CC(C)C)N(C)C(=O)C[C@@H](C(=O)N2CCOCC2)N(C)C(=O)[C@H](C2CCCC2)N(C)C(=O)[C@](C)(CC(C)C)NC(=O)[C@@H]2CCCN2C(=O)[C@H](CCc2cc(F)c(C(F)(F)F)c(F)c2)NC(=O)CN(C)C(=O)[C@@H]1Cc1ccc(C(F)(F)F)cc1 [PP0795] ([NMeL]I[Sar][Aze][NPrPhe(4-CF3)][Sar][hPhe(3,5-F2-4-CF3)]P[αMeL][NMeGly(cPent)][NMeD]-Morpholide; lactam N-11)",C (A compound having a KD ratio of 0.1 or more and less than 3 is denoted as C),B (a compound having 3 or more and less than 10 is denoted as B)
"CCCN1C(=O)[C@@H]2CCN2C(=O)CN(C)C(=O)[C@H]([C@@H](C)CC)NC(=O)[C@H](CC(C)C)N(C)C(=O)C[C@@H](C(=O)N2CCOCC2)N(C)C(=O)[C@H](C2CCCC2)N(C)C(=O)[C@](C)(CC2CCCCC2)NC(=O)[C@@H]2CCCN2C(=O)[C@H](CCc2cc(F)c(C(F)(F)F)c(F)c2)NC(=O)CN(C)C(=O)[C@@H]1Cc1ccc(C(F)(F)F)cc1 [PP0796] ([NMeL]I[Sar][Aze][NPrPhe(4-CF3)][Sar][hPhe(3,5-F2-4-CF3)]P[αMeCha][NMeGly(cPent)][NMeD]-Morpholide; lactam N-11)",C (A compound having a KD ratio of 0.1 or more and less than 3 is denoted as C),B (a compound having 3 or more and less than 10 is denoted as B)
"CCCN1C(=O)[C@@H]2CCN2C(=O)CN(C)C(=O)[C@H]([C@@H](C)CC)NC(=O)[C@H](CC(C)C)N(C)C(=O)C[C@@H](C(=O)N2CCOCC2)N(C)C(=O)[C@H](C2CCCC2)N(C)C(=O)[C@](C)(COC)NC(=O)[C@@H]2CCCN2C(=O)[C@H](CCc2cc(F)c(C(F)(F)F)c(F)c2)NC(=O)CN(C)C(=O)[C@@H]1Cc1ccc(C(F)(F)F)cc1 [PP0798] ([NMeL]I[Sar][Aze][NPrPhe(4-CF3)][Sar][hPhe(3,5-F2-4-CF3)]P[αMeS](Me)[NMeGly(cPent)][NMeD]-Morpholide; lactam N-11)",C (A compound having a KD ratio of 0.1 or more and less than 3 is denoted as C),B (a compound having 3 or more and less than 10 is denoted as B)
"C=CCOC[C@]1(C)NC(=O)[C@@H]2CCCN2C(=O)[C@H](CCc2cc(F)c(C(F)(F)F)c(F)c2)NC(=O)CN(C)C(=O)[C@H](Cc2ccc(C(F)(F)F)cc2)N(CCC)C(=O)[C@@H]2CCN2C(=O)CN(C)C(=O)[C@H]([C@@H](C)CC)NC(=O)[C@H](CC(C)C)N(C)C(=O)C[C@@H](C(=O)N2CCOCC2)N(C)C(=O)[C@H](C2CCCC2)N(C)C1=O [PP0799] ([NMeL]I[Sar][Aze][NPrPhe(4-CF3)][Sar][hPhe(3,5-F2-4-CF3)]P[αMeS](Allyl)[NMeGly(cPent)][NMeD]-Morpholide; lactam N-11)",C (A compound having a KD ratio of 0.1 or more and less than 3 is denoted as C),B (a compound having 3 or more and less than 10 is denoted as B)
"CCCN1C(=O)[C@@H]2CCN2C(=O)CN(C)C(=O)[C@H]([C@@H](C)CC)NC(=O)[C@H](CC(C)C)N(C)C(=O)C[C@@H](C(=O)N2CCOCC2)N(C)C(=O)[C@H](C2CCCC2)N(C)C(=O)[C@](C)(COC(C)(C)C)NC(=O)[C@@H]2CCCN2C(=O)[C@H](CCc2cc(F)c(C(F)(F)F)c(F)c2)NC(=O)CN(C)C(=O)[C@@H]1Cc1ccc(C(F)(F)F)cc1 [PP0800] ([NMeL]I[Sar][Aze][NPrPhe(4-CF3)][Sar][hPhe(3,5-F2-4-CF3)]P[αMeS](tBu)[NMeGly(cPent)][NMeD]-Morpholide; lactam N-11)",C (A compound having a KD ratio of 0.1 or more and less than 3 is denoted as C),B (a compound having 3 or more and less than 10 is denoted as B)
